# Marks after values point to notes of the source that are not given here.
# Legend:
# [1] = molecular target: T1, extracellular domain of glycoprotein 130 (gp130) (Homo sapiens, UniProt P40189); settings: binding to extracellular domain of gp130; literature reference 6; cited from earlier work
# T1 sequence (P40189 23-619 limits assumed): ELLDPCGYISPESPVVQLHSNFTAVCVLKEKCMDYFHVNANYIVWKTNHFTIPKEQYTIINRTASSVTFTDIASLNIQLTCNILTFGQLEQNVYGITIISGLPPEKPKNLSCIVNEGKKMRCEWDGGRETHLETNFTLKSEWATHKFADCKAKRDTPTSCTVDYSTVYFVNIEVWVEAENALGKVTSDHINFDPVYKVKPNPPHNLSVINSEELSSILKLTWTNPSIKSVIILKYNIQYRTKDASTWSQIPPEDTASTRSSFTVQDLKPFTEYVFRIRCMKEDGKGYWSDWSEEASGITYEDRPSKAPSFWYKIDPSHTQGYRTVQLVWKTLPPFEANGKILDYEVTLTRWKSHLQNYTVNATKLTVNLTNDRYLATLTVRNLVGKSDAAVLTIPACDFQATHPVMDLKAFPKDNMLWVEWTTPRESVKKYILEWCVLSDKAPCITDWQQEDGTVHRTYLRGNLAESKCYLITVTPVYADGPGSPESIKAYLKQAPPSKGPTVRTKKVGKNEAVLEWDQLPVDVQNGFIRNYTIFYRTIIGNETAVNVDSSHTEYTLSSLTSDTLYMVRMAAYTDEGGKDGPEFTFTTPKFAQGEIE
# [2] = molecular target: T2, gp130 (Homo sapiens, UniProt P40189); experiment: DARTS assay in MIAPaCa2 pancreatic cancer cell lysates; assay type: binding; settings: 1:2000 pronase:protein, proteolysis 20 minutes; FIG. 2
# T2 construct: endogenous in cells; host or cells: MDA-MB-231 breast cancer cells (RIPA lysate)
# T2 sequence (P40189 23-918): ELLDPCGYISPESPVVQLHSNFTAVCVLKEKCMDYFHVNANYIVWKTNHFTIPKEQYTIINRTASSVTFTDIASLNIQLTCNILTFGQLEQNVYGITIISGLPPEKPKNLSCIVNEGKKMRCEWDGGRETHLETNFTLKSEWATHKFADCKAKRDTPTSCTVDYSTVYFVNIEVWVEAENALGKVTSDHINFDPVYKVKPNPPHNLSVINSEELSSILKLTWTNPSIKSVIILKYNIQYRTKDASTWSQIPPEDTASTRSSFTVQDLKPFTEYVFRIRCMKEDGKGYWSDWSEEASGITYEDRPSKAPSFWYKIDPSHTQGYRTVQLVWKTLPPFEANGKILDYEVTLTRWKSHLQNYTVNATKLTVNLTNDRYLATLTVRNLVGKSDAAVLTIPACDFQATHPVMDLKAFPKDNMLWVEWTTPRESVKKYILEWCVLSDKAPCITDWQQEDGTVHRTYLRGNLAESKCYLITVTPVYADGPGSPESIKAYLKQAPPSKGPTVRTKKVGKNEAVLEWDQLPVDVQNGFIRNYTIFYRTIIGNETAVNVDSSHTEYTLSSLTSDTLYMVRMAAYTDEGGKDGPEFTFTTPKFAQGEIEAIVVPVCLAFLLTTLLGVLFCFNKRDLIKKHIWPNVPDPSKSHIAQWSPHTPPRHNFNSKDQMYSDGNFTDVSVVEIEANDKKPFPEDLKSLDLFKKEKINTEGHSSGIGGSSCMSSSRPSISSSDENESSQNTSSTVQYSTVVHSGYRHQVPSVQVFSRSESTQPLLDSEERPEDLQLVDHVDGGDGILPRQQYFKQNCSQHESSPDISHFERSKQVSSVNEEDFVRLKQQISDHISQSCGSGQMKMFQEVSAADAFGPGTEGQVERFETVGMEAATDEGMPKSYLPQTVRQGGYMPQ
# Method: (§1) Cells were harvested and lysed in cold radioimmunoprecipitation assay (RIPA) lysis buffer containing proteasome inhibitor cocktail and phosphatase inhibitor cocktail. The protein concentrations were determined using the BCA Protein Assay kit. After adding the loading buffer and boiling at 95° C. for 10 minutes, equivalent amounts of proteins were loaded on and separated by SDS-PAGE, and then were transferred to PVDF membranes. Membranes were probed with primary antibodies (1:1000) against gp130 and GAPDH. Membranes were analyzed using Enhanced Chemiluminescence Plus reagents and either scanned with the Storm Scanner (Amersham Pharmacia Biotech, Inc., Piscataway, NJ) or imaged with ChemiDoc MP imaging system (Bio-Rad, Hercules, CA).
# (§2) MDA-MB-231 breast cancer cells or MIAPaCa2 pancreatic cancer cells were lysed in cold radioimmunoprecipitation assay (RIPA) lysis buffer containing proteasome inhibitor cocktail and phosphatase inhibitor cocktail. Then lysates were incubated with escalating concentrations (10-1000 μM) of LS-28-3 or bazedoxifene at room temperature for 1 h. Proteolysis was followed by adding protease pronase solution at a ratio of 1 mg of pronase to 1000 mg (or 2000 mg) of lysate protein for 20 min at room temperature. […] The resulted protein samples were separated by 8% SDS-PAGE gel and analyzed by western blotting. […]
# [3] = test system: MDA-MB-231 breast cancer cells; experiment: MTT cell viability assay, MDA-MB-231; assay type: cell-based; settings: MTT, 10 μM compound
# Method: Cell viability of MDA-MB-231 breast cancer cells was evaluated by using the MTT assay in triple replicates in one experiment and repeated for three times (FIG. 3). […] The cells were incubated at 37° C. for a period of 24 hours. Escalating concentrations of IL-6/gp130 inhibitors (e.g., compounds of Formula (A), (B), (C), (D), (E), or (F) including LLM-418, bazedoxifene, LS-28-3, and COMP-D (LS-101-D)) were added in triplicate to the plates in the presence of 10% FBS. After incubation for 72 hours (unless otherwise noted), a stock solution of MTT (0.5 mg/ml) was then added to each well containing the treated cells, followed by incubation at 37° C. for 3 h. After removal of medium, the MTT dye was dissolved with spectrophotometric grade DMSO and the absorbance was read at 570 nm. The IC50 value is determined by interpolation based on the absorbance value halfway between positive and negative controls.
# [4] = molecular target: T2, gp130; experiment: DARTS assay in MDA-MB-231 breast cancer cell lysates; assay type: binding; settings: 1:2000 pronase:protein, proteolysis 20 minutes; FIG. 1
# Method: as §1, §2
# [5] = test system: SUM159 breast cancer cells; experiment: MTT cell viability assay, SUM159; assay type: cell-based; settings: 72 hours, Inactive = no measurable activity at 20 μM
# Method: Cell viability of MDA-MB-231 breast cancer cells was evaluated by using the MTT assay in triple replicates in one experiment and repeated for three times (FIG. 3). MDA-MB-231 SUM159, SUM159 […], MDA-MB-231 breast cancer cells or SUM149 or HCC1937 BRCA mutant breast cancer cells were seeded in 96-well plates at a density of 3,000 cells per well. The cells were incubated at 37° C. for a period of 24 hours. Escalating concentrations of IL-6/gp130 inhibitors (e.g., compounds of Formula (A), (B), (C), (D), (E), or (F) including LLM-418, bazedoxifene, LS-28-3, and COMP-D (LS-101-D)) were added in triplicate to the plates in the presence of 10% FBS. After incubation for 72 hours (unless otherwise noted), a stock solution of MTT (0.5 mg/ml) was then added to each well containing the treated cells, followed by incubation at 37° C. for 3 h. After removal of medium, the MTT dye was dissolved with spectrophotometric grade DMSO and the absorbance was read at 570 nm. The IC50 value is determined by interpolation based on the absorbance value halfway between positive and negative controls.
Structure (SMILES),Kd [1] [µM],"Binding to gp130 (protection from pronase proteolysis), MIAPaCA2 lysates [2]","Percent cells remaining after treatment with 10 μM compound, MDA-MB-231 ([3]; Table 1 batch studies) [%***]","Percent cells remaining after treatment with 10 μM compound, MDA-MB-231 ([3]; Table 3 batch studies) [%***]","Binding to gp130 (protection from pronase proteolysis), MDA-MB-231 lysates [4]","IC50 Values in Breast Cancer Cell Lines, SUM159 ([5]; Table 1 batch studies)",SUM159 IC50 ([5]; Table 3 batch studies (independent from Table 1))
"CCCCC1=C(C)C(=O)[C@](C)(CN2c3ccccc3[C@]3(O)CCOC23)C1=O (stereo partly shown) [MDL-A, Madindoline A]",288,,,,,,
"CC(C)[C@H]1COC(=O)N1c1ccc(C(=O)Nc2cccc(-c3cc[nH]n3)c2)cc1 [LS-28-3, (S)—N-(3-(1H-pyrazol-3-yl)phenyl)-4-(4-isopropyl-2-oxooxazolidin-3-yl)benzamide]",,showed direct binding to gp130,88,88,showed direct binding to gp130,Inactive,Inactive

# Source: patent US20240246943A1, “MULTIFACETED APPROACH TO NOVEL INTERLEUKIN-6 INHIBITORS” (UNIVERSITY OF FLORIDA RESEARCH FOUNDATION, INCORPORATED, priority 2021, published 2024)
